{
  "source": "patent US10765638B2",
  "about": "“Particle formulation with polycation complex” (Yale University, priority 2017, dated 2020)",
  "key": {"LC-1F": {"test_system": "LC-1F", "conditions": "read-out: IC50 for erlotinib (printed in the Afatinib column, marked &), cancerrxgene.org; cited from earlier work"}, "H1975 and H1975-OR cells": {"test_system": "H1975 and H1975-OR cells", "assay": "MTT proliferation assay", "type": "cell-based", "conditions": "1 μM Osimertinib", "protocol": "The H1975 and A549 cell lines were purchased from ATCC (Manassas, Va.), the PC9 cell line was a gift from Katie Politi, and the HCC-827 and HCC-827-GR lines were gifts from Jeff Engelman (MGH, Boston Mass.). Cell lines were cultured in RPMI 1640+10% FBS supplemented with penicillin and streptomycin (Gibco, Life Technologies, Grand Island, N.Y., US) in a humidified incubator with 5% CO2, and they were kept in culture no more than 4 months after resuscitation from the original stocks. No additional authentication was performed. Mycoplasma cell culture contamination was routinely checked and ruled out using the MycoAlert Mycoplasma Detection Kit (Lonza, Rockland, Me. USA). To generate a TKI resistant cell lines, either PC9 or H1975 cells were exposed to increasing concentrations of gefitinib or osimertinib, respectively. Gefitinib or Osimertinib concentrations were increased stepwise when cells resumed growth kinetics similar to the untreated parental cells over a dose range from 10 to 500 nM. Resistant cell cultures were obtained ˜8-12 weeks after initiation of drug exposure. To confirm the emergence of a therapeutic resistant, MTT assays were performed after allowing the cells to grow in drug-free conditions for at least 4 days.\nGrowth rates were determined by CellTiter 96 NonRadioactive Cell Proliferation Assay (Promega; Madison, Wis., USA) according to the manufacturer's directions. Briefly, NSCLC cells (2×103) untreated or treated with 10 μM NGI-1, 100 nM Gefitinib, or 1 μM Osimertinib (Selleck Chemicals), were seeded in triplicate in 96-wells plates and grown in culture medium containing 10% serum. The media was changed with or without new inhibitor every 48 h. Cell numbers were estimated after 0, 3, and 5 days by adding MTT (3-(4,5-dimethylthiazol-2-yl)-2,5-diphenyltetrazolium bromide) reagent to the wells 4 h before taking the spectrophotometric reading (absorbance at 570 nm)."}, "H1975-OR xenografts": {"test_system": "H1975-OR xenografts", "assay": "NSCLC xenograft tumor growth", "type": "in vivo, athymic Swiss nu/nu mice", "conditions": "5 mg/kg osimertinib oral daily; 5 mg/kg NGI-1-NP as printed in b391 (20 mg/kg elsewhere in the source); blank NPs 926±253 mm3", "protocol": "The effects of NGI-1 were evaluated in Six-to-eight-week old female athymic Swiss nu/nu mice bearing bilateral flank xenograft tumors. Five days after inoculation, mice were randomized to receive i.v. NGI-1 NPs (20 mg/kg) or blank NPs three times per week for a total of 8 doses. […] Tumor size was measured three times per week and volume was calculated according to the formula π/6×(length)×(width)^2."}, "D54-ERLucT xenografts": {"test_system": "D54-ERLucT xenografts", "assay": "Bioluminescent imaging of inhibition of N-linked glycosylation in xenografts", "type": "in vivo, mice", "conditions": "24 hours; tunicamycin 1 mg/kg, positive control", "protocol": "All experimental procedures were approved in accordance with IACUC and Yale University institutional guidelines for animal care and ethics and guidelines for the welfare and use of animals in cancer research (Workman et al., Br J Cancer, 102:1555-77 (2010)). NGI-1 delivery to glioma xenografts was evaluated using a bioluminescent imaging platform that detects inhibition of NLG (Contessa at al., Clin Cancer Res., 16:3205-14 (2010)). Ten days after subcutaneous injection of 1×10^7 gliomas cells, mice bearing palpable tumors were treated with control or NGI-1 NPs (20 mg/kg), or tunicamycin 1 mg/kg and imaged 5-30 minutes after delivery of i.p. luciferin (150 mg/kg). Signal intensity was quantified for a region of interest (ROI) encompassing each tumor and induction of bioluminscence was calculated by comparing peak bioluminescent activity from pre- and post-treatment imaging at 24 and 48 hours."}, "[1]": {"conditions": "Contessa et al., Clin Cancer Res. 2010; cited from earlier work"}},
  "data": [
    {"molecule": "C#Cc1cccc(Nc2ncnc3cc(OCCOC)c(OCCOC)cc23)c1", "note": "[erlotinib]", "values": [
      {"measurement": "IC50", "setting": "LC-1F", "result": 390, "unit": "nM"}
    ]},
    {"molecule": "C=CC(=O)Nc1cc(Nc2nccc(-c3cn(C)c4ccccc34)n2)c(OC)cc1N(C)CCN(C)C", "note": "[osimertinib]", "values": [
      {"measurement": "sensitivity of proliferation to osimertinib", "setting": "H1975 and H1975-OR cells; H1975-OR cells", "result": "resistant"},
      {"measurement": "sensitivity of proliferation to osimertinib", "setting": "H1975 and H1975-OR cells; H1975 cells", "result": "sensitive"},
      {"measurement": "mean tumor volume at day 78", "setting": "H1975-OR xenografts", "result": "584±296", "unit": "mm^3"}
    ]},
    {"molecule": "tunicamycin", "values": [
      {"measurement": "induction of bioluminescence", "setting": "D54-ERLucT xenografts", "result": 4.2, "unit": "fold"},
      {"measurement": "toxicity", "setting": "[1]", "result": "significant toxicity both in vitro and in vivo"}
    ]}
  ]
}
